Measured values taken from patent US10669272B2, “Substituted naphthyridinone compounds useful as T cell activators” (BRISTOL-MYERS SQUIBB COMPANY, priority 2018, dated 2020).
Like-named read-outs stand apart in the source and are kept apart here.

Legend:
Human venous whole blood = test: Human whole blood IFN-γ assay; type: cell-based; details: human whole blood, read-out: INFg Whole Blood Normalized Agonist EC50;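 note: blood from healthy donors exposed to compound for 1 h before stimulation with anti-CD3 and anti-CD28 at 1 µg/mL each, IFN-γ quantified in supernatant by AlphaLISA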
naïve human CD8 T cells = test: Human CD8 T cells IFN-γ assay; type: cell-based; details: read-out: HuCD8 INFG Normalized EC50;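 note: Naïve human CD8 T cells stimulated with plate-bound anti-CD3 and soluble anti-CD28, IFN-γ in supernatant quantified by AlphaLISA and converted to pg/mL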
human DGKζ = target: T1, human DGKζ (Homo sapiens, UniProt Q13574); test: DGKζ LIPGLO assay (extruded liposome substrate), in vitro DGK inhibition; type: biochemical; details: read-out: DGKz LIPGLO IC50
T1 construct: TVMV protease cleavage site (C); Hexa-His (C); made in house; host or cells: Sf9 insect cells (baculovirus, Bac-to-Bac)

human DGKα = target: T2, human DGKα (Homo sapiens, UniProt P23743); test: DGKα LIPGLO assay (extruded liposome substrate), in vitro DGK inhibition; type: biochemical; details: read-out: DGKa LIPGLO IC50
T2 construct: TVMV protease cleavage site (C); Hexa-His (C); made in house; host or cells: Sf9 insect cells (baculovirus, Bac-to-Bac)

[1] = Homo sapiens, 24 h, normalized to 3 μM reference compound with anti-CD3 plus anti-CD28 as 100% activation
[2] = normalized to 3 μM reference compound with anti-CD3 plus anti-CD28 as 100% activation
[3] = Homo sapiens, T-cell, 20 h, normalized to 3 μM reference compound with anti-CD3 plus anti-CD28 as 100% activation

T2 sequence (P23743 with tags, fused parts or gaps): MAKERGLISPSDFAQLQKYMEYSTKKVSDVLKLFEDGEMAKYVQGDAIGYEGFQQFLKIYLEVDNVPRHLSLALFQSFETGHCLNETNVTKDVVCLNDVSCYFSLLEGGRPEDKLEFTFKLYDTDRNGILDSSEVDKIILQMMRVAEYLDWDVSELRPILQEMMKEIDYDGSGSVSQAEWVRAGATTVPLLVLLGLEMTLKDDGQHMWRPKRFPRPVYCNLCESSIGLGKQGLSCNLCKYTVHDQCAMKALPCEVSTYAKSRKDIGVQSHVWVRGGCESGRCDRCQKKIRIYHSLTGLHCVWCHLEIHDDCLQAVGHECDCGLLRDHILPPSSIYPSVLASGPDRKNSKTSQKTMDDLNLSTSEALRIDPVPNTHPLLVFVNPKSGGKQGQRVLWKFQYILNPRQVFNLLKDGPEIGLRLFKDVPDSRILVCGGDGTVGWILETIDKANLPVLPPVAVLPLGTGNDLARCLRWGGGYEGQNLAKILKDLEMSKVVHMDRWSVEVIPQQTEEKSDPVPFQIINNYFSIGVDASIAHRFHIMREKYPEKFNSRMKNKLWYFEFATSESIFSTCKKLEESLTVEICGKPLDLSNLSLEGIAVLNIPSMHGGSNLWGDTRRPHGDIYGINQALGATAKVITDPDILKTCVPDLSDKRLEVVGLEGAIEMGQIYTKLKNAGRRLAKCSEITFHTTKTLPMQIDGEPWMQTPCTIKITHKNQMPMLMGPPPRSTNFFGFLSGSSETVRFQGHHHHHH
T1 sequence (Q13574 with tags, fused parts or gaps isoform Q13574-4): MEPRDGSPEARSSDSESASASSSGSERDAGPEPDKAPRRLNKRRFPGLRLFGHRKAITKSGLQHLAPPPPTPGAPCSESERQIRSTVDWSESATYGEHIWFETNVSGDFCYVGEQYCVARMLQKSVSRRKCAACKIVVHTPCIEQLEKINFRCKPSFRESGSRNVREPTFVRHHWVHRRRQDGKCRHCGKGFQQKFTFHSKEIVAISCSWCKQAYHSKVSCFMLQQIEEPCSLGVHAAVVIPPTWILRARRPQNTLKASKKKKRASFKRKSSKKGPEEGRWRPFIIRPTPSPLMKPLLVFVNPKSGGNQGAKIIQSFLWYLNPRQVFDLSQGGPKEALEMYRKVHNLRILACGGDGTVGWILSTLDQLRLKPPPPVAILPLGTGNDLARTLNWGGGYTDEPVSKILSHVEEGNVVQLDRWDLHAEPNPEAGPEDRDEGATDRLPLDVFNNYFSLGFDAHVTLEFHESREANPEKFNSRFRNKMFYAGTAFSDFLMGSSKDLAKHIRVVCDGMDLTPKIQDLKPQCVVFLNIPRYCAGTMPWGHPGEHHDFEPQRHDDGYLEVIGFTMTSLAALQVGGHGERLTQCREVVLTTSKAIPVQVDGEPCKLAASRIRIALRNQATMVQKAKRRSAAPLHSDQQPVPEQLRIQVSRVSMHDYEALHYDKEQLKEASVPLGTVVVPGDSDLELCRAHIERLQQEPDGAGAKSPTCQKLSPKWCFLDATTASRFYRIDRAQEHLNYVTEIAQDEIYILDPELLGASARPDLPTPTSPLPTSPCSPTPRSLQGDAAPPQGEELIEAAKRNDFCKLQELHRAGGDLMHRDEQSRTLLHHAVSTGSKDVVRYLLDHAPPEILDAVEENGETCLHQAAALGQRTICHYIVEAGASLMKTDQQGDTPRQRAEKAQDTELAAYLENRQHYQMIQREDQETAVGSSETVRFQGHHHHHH

Row | IC50 (human DGKζ; liposome (LIPGLO) assay) [nM] | IC50 (human DGKα; liposome (LIPGLO) assay) [nM] | IC50 (human DGKζ; DGKζ liposome (LIPGLO) assay) [nM] | IC50 (human DGKα; DGKα liposome (LIPGLO) assay) [nM] | Compound | EC50 (Human venous whole blood; [1]) [nM] | EC50 (naïve human CD8 T cells; [2]) [nM] | EC50 (naïve human CD8 T cells; [3]) [nM] | EC50 (Human venous whole blood; Homo sapiens, 24 h, anti-CD3 plus anti-CD28, 24 hours, 3 μM reference compound = 100% activation) [nM] | EC50 (naïve human CD8 T cells; Homo sapiens, T-cell, 20 h, naïve human CD8 T cells, anti-CD3 plus anti-CD28, 3 μM reference compound = 100% activation) [nM] | EC50 (Human venous whole blood; [2]) [nM]
1 | 3600 | 27000 |  |  | CCc1cc(F)ccc1C(c1ccc(F)cc1)N1C[C@H](C)N(c2cc(=O)n(C)c3ccc(OC)nc23)C[C@H]1C (single isomer, unassigned) [Example 233] | 20000 | 10000 |  |  |  | 
2 | 17000 | 8300 |  |  | COc1ccc2c(n1)c(N1C[C@@H](C)N(C(c3ccc(F)cc3)c3ccc(F)cc3)C[C@@H]1C)cc(=O)n2C [Example 241] | 16000 |  | 1600 |  |  | 
3 | 2500 | 5700 |  |  | C[C@@H]1CN(c2cc(=O)n(C)c3ccc(C#N)nc23)[C@@H](C)CN1C(c1ccc(F)cc1)c1c(F)cccc1F (single isomer, unassigned) [Example 274] | 3600 | 42 |  |  |  | 
4 | 8700 | 240000 |  |  | CCc1cc(F)ccc1C(c1ccc(F)cc1)N1C[C@H](C)N(c2cc(=O)n(C)c3ccc(OC)nc23)C[C@H]1C (single isomer, unassigned) [Example 234] |  | 2500 |  |  |  | 20000

Second part, the compound before the results:

Row | Compound | IC50 (human DGKζ; liposome (LIPGLO) assay) [nM] | IC50 (human DGKα; liposome (LIPGLO) assay) [nM] | IC50 (human DGKζ; DGKζ liposome (LIPGLO) assay) [nM] | IC50 (human DGKα; DGKα liposome (LIPGLO) assay) [nM] | EC50 (Human venous whole blood; [1]) [nM] | EC50 (naïve human CD8 T cells; [2]) [nM] | EC50 (naïve human CD8 T cells; [3]) [nM] | EC50 (Human venous whole blood; Homo sapiens, 24 h, anti-CD3 plus anti-CD28, 24 hours, 3 μM reference compound = 100% activation) [nM] | EC50 (naïve human CD8 T cells; Homo sapiens, T-cell, 20 h, naïve human CD8 T cells, anti-CD3 plus anti-CD28, 3 μM reference compound = 100% activation) [nM] | EC50 (Human venous whole blood; [2]) [nM]
5 | C[C@@H]1CN(c2cc(=O)n(C)c3ccc(C#N)nc23)[C@@H](C)CN1Cc1cccc(C(F)(F)F)n1 [Example 278, 8-[(2S,5R)-2,5-dimethyl-4-{[6-(trifluoromethyl)pyridin-2-yl]methyl}piperazin-1-yl]-5-methyl-6-oxo-5,6-dihydro-1,5-naphthyridine-2-carbonitrile] | 1500 | 870 |  |  | 3200 |  | 2200 |  |  | 
6 | Cc1nc(C(F)(F)F)ccc1CN1C[C@H](C)N(c2cc(=O)n(C)c3ccc(C#N)nc23)C[C@H]1C [Example 279, 8-[(2S,5R)-2,5-dimethyl-4-{[2-methyl-6-(trifluoromethyl)pyridin-3-yl]methyl}piperazin-1-yl]-5-methyl-6-oxo-5,6-dihydro-1,5-naphthyridine-2-carbonitrile] | 4600 | 2300 |  |  | 3700 |  | 1200 |  |  | 
7 | C[C@@H]1CN(c2c(F)c(=O)n(C)c3ccc(C#N)nc23)[C@@H](C)CN1C(c1ccc(F)cc1)c1ccc(C#N)cc1 (stereo partly drawn) [Example 327, 8-((2S,5R)-4-((4-cyanophenyl)(4-fluorophenyl)methyl)-2,5-dimethylpiperazin-1-yl)-7-fluoro-5-methyl-6-oxo-5,6-dihydro-1,5-naphthyridine-2-carbonitrile] | 4900 | 3200 |  |  | 700 | 1200 |  |  |  | 
8 | CC[C@@H]1CN(c2cc(=O)n(C)c3ccc(C#N)nc23)[C@@H](C)CN1C(c1ccc(F)cc1)c1ncccc1F (stereo partly drawn) [Example 1104] | 900 | 250 |  |  | 300 | 56 |  |  |  | 
9 | C[C@@H]1CN(c2cc(=O)n(C)c3ccc(C#N)nc23)[C@@H](C)CN1C(c1ccc(Cl)cc1)c1ccc(F)cn1 (single isomer, unassigned) [Example 191] | 590 | 200 |  |  | 430 |  | 31 |  |  | 
10 | C[C@@H]1CN(c2cc(=O)n(C)c3ccc(C#N)nc23)[C@@H](C)CN1C(c1ccc(F)c(F)c1)c1ccccn1 (single isomer, unassigned) [Example 375] | 2700 | 270 |  |  | 330 |  | 49 |  |  | 
11 | C[C@@H]1CN(c2cc(=O)n(C)c3ccc(C#N)nc23)[C@@H](C)CN1C(c1ccc(F)cc1)c1nc(C2CC2)no1 (single isomer, unassigned) [Example 735] |  |  | 61 | 240 |  |  |  | 140 | 0.74 | 
12 | C[C@@H]1CN(c2c(F)c(=O)n(C)c3ccc(C#N)nc23)CCN1C(c1ccc(Cl)cc1)c1ccc(Cl)cc1 [Example 34, (R)-8-(4-(bis(4-chlorophenyl)methyl)-3-methylpiperazin-1-yl)-7-fluoro-5-methyl-6-oxo-5,6-dihydro-1,5-naphthyridine-2-carbonitrile] | 510 | 690 |  |  | 1300 |  | 180 |  |  | 
